Target: T1, Serine/threonine-protein kinase ULK2 (Homo sapiens, UniProt Q8IYT8)
T1 sequence (Q8IYT8 whole entry): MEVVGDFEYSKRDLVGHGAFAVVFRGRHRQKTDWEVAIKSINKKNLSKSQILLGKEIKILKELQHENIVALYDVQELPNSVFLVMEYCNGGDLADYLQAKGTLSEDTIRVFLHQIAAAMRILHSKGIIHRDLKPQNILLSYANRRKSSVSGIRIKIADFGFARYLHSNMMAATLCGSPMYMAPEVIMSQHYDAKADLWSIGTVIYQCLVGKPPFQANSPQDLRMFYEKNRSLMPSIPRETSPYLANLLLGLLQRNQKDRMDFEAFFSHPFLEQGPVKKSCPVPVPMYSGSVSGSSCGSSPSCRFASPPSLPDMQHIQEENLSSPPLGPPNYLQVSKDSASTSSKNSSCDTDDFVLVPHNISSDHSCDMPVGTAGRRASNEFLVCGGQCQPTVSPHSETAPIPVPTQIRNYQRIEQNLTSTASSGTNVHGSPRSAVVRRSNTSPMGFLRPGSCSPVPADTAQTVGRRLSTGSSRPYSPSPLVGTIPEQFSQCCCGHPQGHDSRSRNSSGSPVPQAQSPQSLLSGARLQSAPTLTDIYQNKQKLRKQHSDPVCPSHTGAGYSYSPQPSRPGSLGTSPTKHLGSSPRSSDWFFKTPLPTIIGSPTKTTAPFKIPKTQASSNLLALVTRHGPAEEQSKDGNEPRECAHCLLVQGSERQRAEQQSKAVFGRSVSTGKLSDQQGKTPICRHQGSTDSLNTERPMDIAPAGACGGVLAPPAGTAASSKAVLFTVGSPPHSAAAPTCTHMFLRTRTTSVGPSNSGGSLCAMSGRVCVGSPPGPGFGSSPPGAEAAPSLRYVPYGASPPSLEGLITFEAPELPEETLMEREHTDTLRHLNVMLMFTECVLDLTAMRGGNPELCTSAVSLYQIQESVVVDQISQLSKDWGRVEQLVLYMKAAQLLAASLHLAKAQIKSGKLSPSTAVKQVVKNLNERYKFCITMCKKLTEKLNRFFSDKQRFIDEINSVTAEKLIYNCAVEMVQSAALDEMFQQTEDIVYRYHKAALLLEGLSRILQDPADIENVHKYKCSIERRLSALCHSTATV
Assay: Not found
Excerpt: Not found

With CCC(CC)NC(=O)c1cc(-c2cnn3cc(N4CCNCC4)cnc23)cs1 [US20250059194, Example Table 1.9] as the molecule, how does the IC50 read?
Its IC50 is 325 nM.

— BindingDB's records for patent US20250059194 (Michigan State University, 2025)
